Test results as given in patent US9586931B2 (Merck Sharp & Dohme Corp., priority 2012, dated 2017).
Several values for one entry are separate records, joined by “and”; a condition that tells them apart may be missing. Equal entries are not always repeated.

target: T1, recombinant human GST-Syk (Homo sapiens, UniProt P43405); test: Homogeneous Time-Resolved Fluorescence (HTRF) assay for the recombinant human Syk enzyme; format: biochemical; settings: recombinant human GST-Syk 5 pM, ATP 25 μM, 10-dose titration 10 μM to 0.508 nM; read-out: rhSYK Activity IC50
T1 construct: purchased Carna Biosciences 08-176
Procedure, shortened: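 GST-hSyk fusion protein phosphorylated a peptide for 45 min at room temperature. The reaction was quenched with 2 nM Eu-anti-phosphotyrosine antibody and 70 nM SA-APC in 15 mM Tris pH 7.5, 40 mM EDTA, 0.01% Tween 20. The HTRF signal was read after 30 min.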

Question: How did the IC50 turn out when Cc1cc(Nc2nccc(C(F)(F)F)n2)cc(-c2cn(C3CS(=O)(=O)CC3O)nn2)c1 (stereo not drawn) [Example 5.63, 4-[4-(3-methyl-5-{[4-(trifluoromethyl)pyrimidin-2-yl]amino}phenyl)-1H-1,2,3-triazol-1-yl]tetrahydrothiophene-3-ol 1,1-dioxide] was run?
Answer: Its IC50 is 24.1 nM.

Question: For Cc1cc(Nc2nccc(C(F)(F)F)n2)cc(-c2cn(CC(=O)N3[C@H](C)COC[C@@H]3C)nn2)c1 [Example 5.65, N-[3-(1-{2-[(cis)-3,5-dimethylmorpholin-4-yl]-2-oxoethyl}-1H-1,2,3-triazol-4-yl)-5-methylphenyl]-4-(trifluoromethyl)pyrimidin-2-amine], which IC50 is on record?
Answer: Its IC50 is 122 nM.

Question: How did the IC50 turn out when Cc1cc(Nc2nccc(C(F)(F)F)n2)cc(-c2cn(CC(=O)N3CCOCC3(C)C)nn2)c1 [Example 5.66, N-(3-{1-[2-(3,3-dimethylmorpholin-4-yl)-2-oxoethyl]-1H-1,2,3-triazol-4-yl}-5-methylphenyl)-4-(trifluoromethyl)pyrimidin-2-amine] was run?
Answer: The IC50 was 152 nM.

Question: COCC(C)(C)NC(=O)Cn1cc(-c2cc(C)cc(Nc3nccc(C(F)(F)F)n3)c2)nn1 [Example 5.67, N-(2-methoxy-1,1-dimethylethyl)-2-[4-(3-methyl-5-{[4-(trifluoromethyl)pyrimidin-2-yl]amino}phenyl)-1H-1,2,3-triazol-1-yl]acetamide] was tested. Which IC50 did it give?
Answer: Its IC50 is 296 nM.

Question: Cc1cc(Nc2nccc(C(F)(F)F)n2)cc(-c2cn(CC(=O)N3COCC3(C)C)nn2)c1 [Example 5.68, N-(3-{1-[2-(4,4-dimethyl-1,3-oxazolidin-3-yl)-2-oxoethyl]-1H-1,2,3-triazol-4-yl}-5-methylphenyl)-4-(trifluoromethyl)pyrimidin-2-amine] was tested. Which IC50 did it give?
Answer: The IC50 was 114 nM.

Question: Which IC50 does the source give for Cc1cc(Nc2nccc(C(F)(F)F)n2)cc(-c2cn(Cc3noc(C)n3)nn2)c1 [Example 5.69, N-(3-methyl-5-{1-[(5-methyl-1,2,4-oxadiazol-3-yl)methyl]-1H-1,2,3-triazol-4-yl}phenyl)-4-(trifluoromethyl)pyrimidin-2-amine] here?
Answer: The IC50 was 57.2 nM.

Question: Which IC50 does the source give for Cc1cc(Nc2nccc(C(F)(F)F)n2)cc(-c2cn(CC(=O)NC(C)(C)C)nn2)c1 [Example 5.70, N-tert-butyl-2-[4-(3-methyl-5-{[4-(trifluoromethyl)pyrimidin-2-yl]amino}phenyl)-1H-1,2,3-triazol-1-yl]acetamide] here?
Answer: The IC50 was 183 nM.

Question: With Cc1cc(Nc2nccc(C(F)(F)F)n2)cc(-c2cn(CCCN3CCNC3=O)nn2)c1 [Example 5.71, 1-{3-[4-(3-methyl-5-{[4-(trifluoromethyl)pyrimidin-2-yl]amino}phenyl)-1H-1,2,3-triazol-1-yl]propyl}imidazolidin-2-one] as the compound, how does the IC50 read?
Answer: The IC50 was 152 nM.

Question: Which IC50 does the source give for Cc1cc(Nc2nccc(C(F)(F)F)n2)cc(-c2cn(C[C@H](C)CO)nn2)c1 [Example 5.72, (2S)-2-methyl-3-[4-(3-methyl-5-{[4-(trifluoromethyl)pyrimidin-2-yl]amino}phenyl)-1H-1,2,3-triazol-1-yl]propan-1-ol] here?
Answer: The IC50 was 38.1 nM.

Question: For Cc1cc(Nc2nccc(C(F)(F)F)n2)cc(-c2cn(C[C@@H](C)CO)nn2)c1 [Example 5.73, (2R)-2-methyl-3-[4-(3-methyl-5-{[4-(trifluoromethyl)pyrimidin-2-yl]amino}phenyl)-1H-1,2,3-triazol-1-yl]propan-1-ol], which IC50 is on record?
Answer: The IC50 was 39.2 nM.

Question: Which IC50 does the source give for Cc1cc(Nc2nccc(C(F)(F)F)n2)cc(-c2cn(CCN)nn2)c1 [Example 5.74, N-{3-[1-(2-aminoethyl)-1H-1,2,3-triazol-4-yl]-5-methylphenyl}-4-(trifluoromethyl)pyrimidin-2-amine] here?
Answer: Its IC50 is 187 nM.

Question: For Cc1cc(Nc2nccc(C(F)(F)F)n2)cc(-c2cn(CCC(N)=O)nn2)c1 [Example 5.75, 3-[4-(3-methyl-5-{[4-(trifluoromethyl)pyrimidin-2-yl]amino}phenyl)-1H-1,2,3-triazol-1-yl]propanamide], which IC50 is on record?
Answer: Its IC50 is 31.6 nM.

Question: For Cc1cc(Nc2nccc(C(F)(F)F)n2)cc(-c2cn(CCCO)nn2)c1 [Example 5.77, 3-[4-(3-methyl-5-{[4-(trifluoromethyl)pyrimidin-2-yl]amino}phenyl)-1H-1,2,3-triazol-1-yl]propan-1-ol], which IC50 is on record?
Answer: Its IC50 is 50.7 nM.

Question: Which IC50 does the source give for Cc1cc(Nc2nccc(C(F)(F)F)n2)cc(-c2cn(CC#N)nn2)c1 [Example 5.78, [4-(3-methyl-5-{[4-(trifluoromethyl)pyrimidin-2-yl]amino}phenyl)-1H-1,2,3-triazol-1-yl]acetonitrile] here?
Answer: The IC50 was 84.1 nM.

Question: Cc1cc(Nc2nccc(C(F)(F)F)n2)cc(-c2cn(CC(N)=O)nn2)c1 [Example 5.79, 2-[4-(3-methyl-5-{[4-(trifluoromethyl)pyrimidin-2-yl]amino}phenyl)-1H-1,2,3-triazol-1-yl]acetamide] was tested. Which IC50 did it give?
Answer: The IC50 was 73.8 nM and 81.8 nM.

Question: With Cc1cc(Nc2cc(C(F)(F)F)ccn2)nc(-c2cn(C[C@@H](C)CO)nn2)c1 [Example 5.81, (2R)-2-methyl-3-[4-(4-methyl-6-{[4-(trifluoromethyl)pyridin-2-yl]amino}pyridin-2-yl)-1H-1,2,3-triazol-1-yl]propan-1-ol] as the compound, how does the IC50 read?
Answer: Its IC50 is 6.9 nM.

Question: Cc1cc(Nc2cc(C(F)(F)F)ccn2)nc(-c2cn(C[C@H](C)CO)nn2)c1 [Example 5.82, (2S)-2-methyl-3-[4-(4-methyl-6-{[4-(trifluoromethyl)pyridin-2-yl]amino}pyridin-2-yl)-1H-1,2,3-triazol-1-yl]propan-1-ol] was tested. Which IC50 did it give?
Answer: Its IC50 is 7.9 nM.

Question: COC(=O)[C@@H](C)Cn1cc(-c2cc(C)cc(Nc3cc(C(F)(F)F)ccn3)n2)nn1 [Example 5.86, methyl (2S)-2-methyl-3-[4-(4-methyl-6-{[4-(trifluoromethyl)pyridin-2-yl]amino}pyridin-2-yl)-1H-1,2,3-triazol-1-yl]propanoate] was tested. Which IC50 did it give?
Answer: The IC50 was 66.4 nM.

Question: With Cc1cc(Nc2cc(C(F)(F)F)ccn2)nc(-c2cn(CC(=O)N3CCCC3)nn2)c1 [Example 5.87, 4-methyl-6-[1-(2-oxo-2-pyrrolidin-1-ylethyl)-1H-1,2,3-triazol-4-yl]-N-[4-(trifluoromethyl)pyridin-2-yl]pyridin-2-amine] as the compound, how does the IC50 read?
Answer: The IC50 was 81.2 nM.

Question: With Cc1cc(Nc2cc(C(F)(F)F)ccn2)nc(-c2cn(CC(=O)O)nn2)c1 [Example 5.88, [4-(4-methyl-6-{[4-(trifluoromethyl)pyridin-2-yl]amino}pyridin-2-yl)-1H-1,2,3-triazol-1-yl]acetic acid] as the compound, how does the IC50 read?
Answer: The IC50 was 52.9 nM.

Question: Which IC50 does the source give for Cc1cc(Nc2cc(C(F)(F)F)ccn2)nc(-c2cn(C3CS(=O)(=O)CC3O)nn2)c1 (stereo not drawn) [Example 5.90, 4-[4-(4-methyl-6-{[4-(trifluoromethyl)pyridin-2-yl]amino}pyridin-2-yl)-1H-1,2,3-triazol-1-yl]tetrahydrothiophene-3-ol 1,1-dioxide] here?
Answer: The IC50 was 11.5 nM.

Question: How did the IC50 turn out when Cc1cc(Nc2cc(C(F)(F)F)ccn2)nc(-c2cn(CCO)nn2)c1 [Example 5.91, 2-[4-(4-methyl-6-{[4-(trifluoromethyl)pyridin-2-yl]amino}pyridin-2-yl)-1H-1,2,3-triazol-1-yl]ethanol] was run?
Answer: The IC50 was 8.3 nM.

Question: Cc1cc(Nc2cc(C(F)(F)F)ccn2)nc(-c2cn(CC#N)nn2)c1 [Example 5.92, [4-(4-methyl-6-{[4-(trifluoromethyl)pyridin-2-yl]amino}pyridin-2-yl)-1H-1,2,3-triazol-1-yl]acetonitrile] was tested. Which IC50 did it give?
Answer: Its IC50 is 22 nM.

Question: With Cc1cc(Nc2cc(C(F)(F)F)ccn2)nc(-c2cn(CCCO)nn2)c1 [Example 5.94, 3-[4-(4-methyl-6-{[4-(trifluoromethyl)pyridin-2-yl]amino}pyridin-2-yl)-1H-1,2,3-triazol-1-yl]propan-1-ol] as the compound, how does the IC50 read?
Answer: The IC50 was 474 nM.

Question: With Cc1cc(Nc2cc(C(F)(F)F)ccn2)nc(-c2cn(CCS(C)(=O)=O)nn2)c1 [Example 5.96, 4-methyl-6-{1-[2-(methylsulfonyl)ethyl]-1H-1,2,3-triazol-4-yl}-N-[4-(trifluoromethyl)pyridin-2-yl]pyridin-2-amine] as the compound, how does the IC50 read?
Answer: The IC50 was 47.1 nM.

Question: For Cc1cc(Nc2cc(C(F)(F)F)ccn2)nc(-c2cn(CC(C)(C)O)nn2)c1 [Example 5.97, 2-methyl-1-[4-(4-methyl-6-{[4-(trifluoromethyl)pyridin-2-yl]amino}pyridin-2-yl)-1H-1,2,3-triazol-1-yl]propan-2-ol], which IC50 is on record?
Answer: The IC50 was 15 nM.

Question: With Cc1cc(Nc2nccc(C(F)(F)F)n2)cc(-c2cn(C[C@H](O)CC#N)nn2)c1 [Example 5.98, (3R)-3-hydroxy-4-[4-(3-methyl-5-{[4-(trifluoromethyl)pyrimidin-2-yl]amino}phenyl)-1H-1,2,3-triazol-1-yl]butanenitrile] as the compound, how does the IC50 read?
Answer: The IC50 was 20 nM.

Question: With CCOC(=O)Cn1cc(-c2cc(C)cc(Nc3cc(C(F)(F)F)ccn3)n2)nn1 [Example 5.100, ethyl [4-(4-methyl-6-{[4-(trifluoromethyl)pyridin-2-yl]amino}pyridin-2-yl)-1H-1,2,3-triazol-1-yl]acetate] as the compound, how does the IC50 read?
Answer: Its IC50 is 27.7 nM.

Question: Which IC50 does the source give for Cc1cc(Nc2cc(C(F)(F)F)ccn2)nc(-c2c[nH]nn2)c1 [Example 5.101, 4-methyl-6-(1H-1,2,3-triazol-4-yl)-N-[4-(trifluoromethyl)pyridin-2-yl]pyridin-2-amine] here?
Answer: The IC50 was 25.2 nM.

Question: Which IC50 does the source give for Cc1cc(Nc2cc(C(F)(F)F)ccn2)nc(-c2cn(C[C@H]3CNC(=O)O3)nn2)c1 [Example 5.102, (5R)-5-{[4-(4-methyl-6-{[4-(trifluoromethyl)pyridin-2-yl]amino}pyridin-2-yl)-1H-1,2,3-triazol-1-yl]methyl}-1,3-oxazolidin-2-one] here?
Answer: The IC50 was 1.1 nM.

Question: Cc1cc(Nc2cc(C(F)(F)F)ccn2)nc(-c2cn(C[C@@H]3CNC(=O)O3)nn2)c1 [Example 5.103, (5S)-5-{[4-(4-methyl-6-{[4-(trifluoromethyl)pyridin-2-yl]amino}pyridin-2-yl)-1H-1,2,3-triazol-1-yl]methyl}-1,3-oxazolidin-2-one] was tested. Which IC50 did it give?
Answer: Its IC50 is 1.9 nM.

Question: With Cc1cc(Nc2cc(C(F)(F)F)ccn2)nc(-c2cn(Cc3cnc(C)[nH]3)nn2)c1 [Example 5.104, 4-methyl-6-{1-[(2-methyl-1H-imidazol-5-yl)methyl]-1H-1,2,3-triazol-4-yl}-N-[4-(trifluoromethyl)pyridin-2-yl]pyridin-2-amine] as the compound, how does the IC50 read?
Answer: Its IC50 is 3.2 nM.

Question: Which IC50 does the source give for Cc1cc(Nc2cc(C(F)(F)F)ccn2)nc(-c2cn(CCc3cn[nH]c3)nn2)c1 [Example 5.105, 4-methyl-6-{1-[2-(1H-pyrazol-4-yl)ethyl]-1H-1,2,3-triazol-4-yl}-N-[4-(trifluoromethyl)pyridin-2-yl]pyridin-2-amine] here?
Answer: The IC50 was 2.1 nM.
